Assays:
[1] = target: G protein-coupled receptor kinase 3 (Homo sapiens) (UniProt P35626); assay: Inhibition of recombinant full length human GRK3 assessed as residual activity at 1 uM using casein as substrate at 40 mins in presence of [gamma-33ATP] by scintillation counting based radiometry assay relative to control
[2] = target: SRSF protein kinase 2 (Homo sapiens) (UniProt P78362); assay: Inhibition of human SRPK2 (46 to end residues) assessed as residual activity at 1 uM using RSRSRSRSRSRSRSR as substrate measured after 40 mins in presence of [gamma33P]ATP by scintillation counting method relative to control
[3] = target: Vascular endothelial growth factor receptor 1 (Homo sapiens) (UniProt P17948); assay: Inhibition of recombinant human FLT1 (783 to end residues) assessed as residual activity at 1 uM using KKKSPGEYVNIEFG as substrate at 40 mins in presence of [gamma-33ATP] by scintillation counting based radiometry assay relative to control
[4] = target: Dual specificity tyrosine-phosphorylation-regulated kinase 2 (Homo sapiens) (UniProt Q92630); assay: Inhibition of recombinant human DYRK2 assessed as residual activity at 1 uM using casein as substrate at 40 mins in presence of [gamma-33ATP] by scintillation counting based radiometry assay relative to control
[5] = target: Serine/threonine-protein kinase SIK2 (Homo sapiens) (UniProt Q9H0K1); assay: Inhibition of recombinant human SIK2 (1 to 276 residues) assessed as residual activity at 1 uM using KKKVSRSGLYRSPSMPENLNRPR as substrate measured after 40 mins in presence of [gamma33P]ATP by scintillation counting method relative to control
[6] = target: Calcium/calmodulin-dependent protein kinase type II subunit beta (Homo sapiens) (UniProt Q13554); assay: Inhibition of recombinant human CaMK2beta (1 to 315 residues) assessed as residual activity at 1 uM using […] incubated for 40 mins in presence of [gamma-33ATP] by scintillation counting based radiometry assay relative to control
[7] = target: Dual specificity mitogen-activated protein kinase kinase 6 (Homo sapiens) (UniProt P52564); assay: Inhibition of recombinant human MKK6 (4 to end residues) assessed as residual activity at 1 uM using unactive SAPK2a as substrate measured after 40 mins in presence of [gamma33P]ATP by scintillation counting method
[8] = target: Rhodopsin kinase GRK7 (Homo sapiens) (UniProt Q8WTQ7); assay: Inhibition of recombinant full length human GRK7 assessed as residual activity at 1 uM using casein as substrate at 40 mins in presence of [gamma-33ATP] by scintillation counting based radiometry assay relative to control
[9] = target: Mitogen-activated protein kinase kinase kinase 7 (Homo sapiens) (UniProt O43318); assay: Inhibition of human TAK1 (1 to 303 residues) assessed as residual activity at 1 uM using casein as substrate measured after 40 mins in presence of [gamma33P]ATP by scintillation counting method relative to control
[10] = target: Cyclin-dependent kinase-like 4 (Homo sapiens) (UniProt Q5MAI5); assay: Inhibition of recombinant full length human CDKL4 assessed as residual activity at 1 uM in presence of [gamma-33ATP] by scintillation counting based radiometry assay relative to control
[11] = target: Dual specificity mitogen-activated protein kinase kinase 2 (Homo sapiens) (UniProt P36507); assay: Inhibition of recombinant human MEK2 assessed as residual activity at 1 uM using MBP as substrate incubated for 40 mins in presence of [gamma-33ATP by scintillation counting based radiometry assay relative to control
[12] = target: Bone morphogenetic protein receptor type-2 (Homo sapiens) (UniProt Q13873); assay: Inhibition of recombinant human BMPR2 (172 to 734 residues) assessed as residual activity at 1 uM using myelin basic protein as substrate incubated for 120 mins in presence of [gamma-33ATP] by scintillation counting based radiometry assay relative to control
[13] = tested on: Epidermal growth factor receptor (Homo sapiens), P00533 [L858R]; assay: Inhibition of recombinant human EGFR L858R mutant (696 to end residues) assessed as residual activity at 1 uM using poly(Glu, Tyr) 4:1 as substrate at 40 mins in presence of [gamma-33ATP] by scintillation counting based radiometry assay relative to control
[14] = target: Bone morphogenetic protein receptor type-1B (Homo sapiens) (UniProt O00238); assay: Inhibition of human ALK6 (148 to end residues) assessed as residual activity at 1 uM using casein as substrate incubated for 40 mins in presence of [gamma-33ATP] by scintillation counting based radiometry assay relative to control
[15] = tested on: Hepatocyte growth factor receptor (Homo sapiens), P08581 [D1228H]; assay: Inhibition of recombinant human MET A1209G/V1290L/D1246H mutant (974 to end residues) assessed as residual activity at 1 uM using KKKGQEEEYVFIE as substrate incubated for 40 mins in presence of [gamma-33ATP by scintillation counting based radiometry assay relative to control
[16] = target: Activin receptor type-1-like (Homo sapiens) (UniProt P37023); assay: Inhibition of recombinant human ALK1 (142 to end residues) assessed as residual activity at 1 uM using casein as substrate incubated for 40 mins in presence of [gamma-33ATP] by scintillation counting based radiometry assay relative to control
[17] = target: Activin receptor type-1B (Homo sapiens) (UniProt P36896); assay: Inhibition of human ALK4 (150 to end residues) assessed as residual activity at 1 uM using casein as substrate incubated for 40 mins in presence of [gamma-33ATP] by scintillation counting based radiometry assay relative to control
[18] = target: Death-associated protein kinase 1 (Homo sapiens) (UniProt P53355); assay: Inhibition of recombinant human DAPK1 (1 to 296 residues) assessed as residual activity at 1 uM KKLNRTLSFAEPG as substrate incubated 40 mins in presence of [gamma-33ATP] by scintillation counting based radiometry assay relative to control
[19] = target: Serine/threonine-protein kinase DCLK3 (Homo sapiens) (UniProt Q9C098); assay: Inhibition of recombinant human DCAMKL3 (345 to end residues) assessed as residual activity at 1 uM using KKLNRTLSFAEPG as substrate at 40 mins in presence of [gamma-33ATP] by scintillation counting based radiometry assay relative to control
[20] = target: Serine/threonine-protein kinase Chk1 (Homo sapiens) (UniProt O14757); assay: Inhibition of recombinant full length human CHK1 assessed as residual activity at 1 uM using KKKVSRSGLYRSP as substrate incubated for 40 mins in presence of [gamma-33ATP] by scintillation counting based radiometry assay relative to control
[21] = target: Serine/threonine-protein kinase Nek2 (Homo sapiens) (UniProt P51955); assay: Inhibition of recombinant full-length human NEK2 assessed as residual activity at 1 uM using myelin basic protein as substrate measured after 40 mins in presence of [gamma33P]ATP by scintillation counting based radiometry assay relative to control

Sequence of Dual specificity tyrosine-phosphorylation-regulated kinase 2 (Homo sapiens) (Q92630 whole entry, the tested form may be a part): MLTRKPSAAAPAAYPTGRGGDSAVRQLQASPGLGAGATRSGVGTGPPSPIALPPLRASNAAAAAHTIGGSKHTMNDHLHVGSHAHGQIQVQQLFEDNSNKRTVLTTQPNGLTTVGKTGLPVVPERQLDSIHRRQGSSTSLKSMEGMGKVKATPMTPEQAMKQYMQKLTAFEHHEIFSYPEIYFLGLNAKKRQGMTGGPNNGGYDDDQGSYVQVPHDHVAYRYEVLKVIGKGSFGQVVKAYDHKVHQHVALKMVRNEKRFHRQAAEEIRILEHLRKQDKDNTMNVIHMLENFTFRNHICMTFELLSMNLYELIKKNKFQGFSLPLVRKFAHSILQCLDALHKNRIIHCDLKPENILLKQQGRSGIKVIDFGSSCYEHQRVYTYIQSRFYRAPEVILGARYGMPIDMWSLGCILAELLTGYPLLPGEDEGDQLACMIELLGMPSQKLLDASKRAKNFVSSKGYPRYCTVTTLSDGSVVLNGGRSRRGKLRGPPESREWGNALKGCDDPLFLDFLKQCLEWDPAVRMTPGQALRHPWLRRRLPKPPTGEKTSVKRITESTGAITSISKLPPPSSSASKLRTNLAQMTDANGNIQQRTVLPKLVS
Sequence of Dual specificity mitogen-activated protein kinase kinase 6 (Homo sapiens) (P52564 whole entry): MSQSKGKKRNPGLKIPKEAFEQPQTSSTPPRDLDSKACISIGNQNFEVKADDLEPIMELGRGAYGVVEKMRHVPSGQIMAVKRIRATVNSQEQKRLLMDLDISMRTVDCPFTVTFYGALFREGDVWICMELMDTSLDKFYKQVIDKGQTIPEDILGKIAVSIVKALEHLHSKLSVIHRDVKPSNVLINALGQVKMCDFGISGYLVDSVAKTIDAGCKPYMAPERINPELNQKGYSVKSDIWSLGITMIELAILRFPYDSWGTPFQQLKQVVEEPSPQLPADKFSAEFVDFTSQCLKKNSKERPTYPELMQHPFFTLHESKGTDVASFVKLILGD
Sequence of Calcium/calmodulin-dependent protein kinase type II subunit beta (Homo sapiens) (Q13554 whole entry, the tested form may be a part): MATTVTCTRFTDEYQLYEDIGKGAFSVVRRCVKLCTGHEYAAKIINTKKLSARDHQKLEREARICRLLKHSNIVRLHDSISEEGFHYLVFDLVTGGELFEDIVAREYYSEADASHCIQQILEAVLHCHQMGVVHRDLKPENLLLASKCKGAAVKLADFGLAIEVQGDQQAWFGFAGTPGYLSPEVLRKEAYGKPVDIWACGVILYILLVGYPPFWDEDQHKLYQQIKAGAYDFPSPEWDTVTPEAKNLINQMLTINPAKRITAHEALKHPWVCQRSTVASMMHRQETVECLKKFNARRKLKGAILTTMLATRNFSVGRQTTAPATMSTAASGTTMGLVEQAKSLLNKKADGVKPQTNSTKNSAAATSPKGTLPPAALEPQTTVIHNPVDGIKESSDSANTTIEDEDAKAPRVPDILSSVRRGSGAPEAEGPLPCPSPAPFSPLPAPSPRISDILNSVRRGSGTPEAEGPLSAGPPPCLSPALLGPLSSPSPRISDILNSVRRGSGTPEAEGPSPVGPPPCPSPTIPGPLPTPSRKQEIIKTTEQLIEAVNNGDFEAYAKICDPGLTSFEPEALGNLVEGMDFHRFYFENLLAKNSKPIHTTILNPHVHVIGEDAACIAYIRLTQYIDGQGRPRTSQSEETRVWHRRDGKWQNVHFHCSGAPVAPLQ
Sequence of Serine/threonine-protein kinase DCLK3 (Homo sapiens) (Q9C098 whole entry): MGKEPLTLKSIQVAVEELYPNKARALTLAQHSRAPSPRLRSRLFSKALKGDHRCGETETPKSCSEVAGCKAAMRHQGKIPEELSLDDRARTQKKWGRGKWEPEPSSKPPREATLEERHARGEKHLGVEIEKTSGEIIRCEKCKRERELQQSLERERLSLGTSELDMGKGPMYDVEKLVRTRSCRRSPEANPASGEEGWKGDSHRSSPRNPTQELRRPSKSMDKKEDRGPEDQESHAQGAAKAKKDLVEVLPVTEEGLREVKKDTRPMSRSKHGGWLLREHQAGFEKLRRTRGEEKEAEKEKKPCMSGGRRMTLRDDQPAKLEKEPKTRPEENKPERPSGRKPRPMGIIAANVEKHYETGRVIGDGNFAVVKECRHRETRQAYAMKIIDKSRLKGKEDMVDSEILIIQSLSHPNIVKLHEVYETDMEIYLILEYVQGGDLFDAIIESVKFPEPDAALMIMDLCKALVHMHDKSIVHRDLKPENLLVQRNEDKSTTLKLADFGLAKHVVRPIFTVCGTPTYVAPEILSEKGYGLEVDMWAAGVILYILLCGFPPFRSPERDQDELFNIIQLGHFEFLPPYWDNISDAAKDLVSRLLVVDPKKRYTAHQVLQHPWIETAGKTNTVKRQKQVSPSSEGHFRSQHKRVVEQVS
Sequence of Activin receptor type-1-like (Homo sapiens) (P37023 whole entry): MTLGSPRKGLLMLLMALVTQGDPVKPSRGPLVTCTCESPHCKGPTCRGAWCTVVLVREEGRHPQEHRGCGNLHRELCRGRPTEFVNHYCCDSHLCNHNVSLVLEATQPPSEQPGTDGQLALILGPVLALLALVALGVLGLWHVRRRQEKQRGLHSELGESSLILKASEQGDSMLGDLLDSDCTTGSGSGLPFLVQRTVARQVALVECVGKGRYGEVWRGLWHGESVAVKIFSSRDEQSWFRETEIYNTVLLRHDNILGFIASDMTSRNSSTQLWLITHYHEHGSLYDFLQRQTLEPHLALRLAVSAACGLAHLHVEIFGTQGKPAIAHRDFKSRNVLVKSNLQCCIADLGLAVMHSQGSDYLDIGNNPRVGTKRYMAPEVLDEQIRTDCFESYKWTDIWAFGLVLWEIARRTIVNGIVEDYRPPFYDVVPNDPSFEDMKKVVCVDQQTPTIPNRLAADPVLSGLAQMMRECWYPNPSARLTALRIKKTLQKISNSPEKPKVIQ
Sequence of Serine/threonine-protein kinase SIK2 (Homo sapiens) (Q9H0K1 whole entry, looked up, the tested form may be a part): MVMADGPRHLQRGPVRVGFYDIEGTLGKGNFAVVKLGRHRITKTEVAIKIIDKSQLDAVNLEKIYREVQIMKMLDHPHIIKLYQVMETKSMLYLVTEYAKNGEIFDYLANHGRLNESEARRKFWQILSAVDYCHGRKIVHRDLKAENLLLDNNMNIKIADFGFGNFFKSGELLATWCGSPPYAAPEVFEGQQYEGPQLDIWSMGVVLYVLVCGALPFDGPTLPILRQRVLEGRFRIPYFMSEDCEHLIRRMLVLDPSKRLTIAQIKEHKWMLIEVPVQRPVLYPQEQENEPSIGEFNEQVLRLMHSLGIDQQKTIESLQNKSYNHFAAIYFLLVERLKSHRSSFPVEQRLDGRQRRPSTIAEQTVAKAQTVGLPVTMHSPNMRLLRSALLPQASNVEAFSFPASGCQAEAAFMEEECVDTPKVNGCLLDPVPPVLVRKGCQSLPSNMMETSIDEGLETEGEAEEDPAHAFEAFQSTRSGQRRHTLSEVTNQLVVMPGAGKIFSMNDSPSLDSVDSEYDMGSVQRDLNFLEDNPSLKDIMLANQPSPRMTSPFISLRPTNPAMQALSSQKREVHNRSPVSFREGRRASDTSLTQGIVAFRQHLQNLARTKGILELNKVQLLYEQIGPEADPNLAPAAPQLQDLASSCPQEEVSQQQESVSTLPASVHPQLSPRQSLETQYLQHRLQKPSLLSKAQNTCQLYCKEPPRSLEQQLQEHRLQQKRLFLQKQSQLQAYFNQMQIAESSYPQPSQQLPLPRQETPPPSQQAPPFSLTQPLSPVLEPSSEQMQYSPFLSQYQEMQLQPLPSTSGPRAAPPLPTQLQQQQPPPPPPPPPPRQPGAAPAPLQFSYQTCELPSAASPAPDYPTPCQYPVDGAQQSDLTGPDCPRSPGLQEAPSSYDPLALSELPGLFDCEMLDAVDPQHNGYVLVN
Sequence of Vascular endothelial growth factor receptor 1 (Homo sapiens) (P17948 whole entry): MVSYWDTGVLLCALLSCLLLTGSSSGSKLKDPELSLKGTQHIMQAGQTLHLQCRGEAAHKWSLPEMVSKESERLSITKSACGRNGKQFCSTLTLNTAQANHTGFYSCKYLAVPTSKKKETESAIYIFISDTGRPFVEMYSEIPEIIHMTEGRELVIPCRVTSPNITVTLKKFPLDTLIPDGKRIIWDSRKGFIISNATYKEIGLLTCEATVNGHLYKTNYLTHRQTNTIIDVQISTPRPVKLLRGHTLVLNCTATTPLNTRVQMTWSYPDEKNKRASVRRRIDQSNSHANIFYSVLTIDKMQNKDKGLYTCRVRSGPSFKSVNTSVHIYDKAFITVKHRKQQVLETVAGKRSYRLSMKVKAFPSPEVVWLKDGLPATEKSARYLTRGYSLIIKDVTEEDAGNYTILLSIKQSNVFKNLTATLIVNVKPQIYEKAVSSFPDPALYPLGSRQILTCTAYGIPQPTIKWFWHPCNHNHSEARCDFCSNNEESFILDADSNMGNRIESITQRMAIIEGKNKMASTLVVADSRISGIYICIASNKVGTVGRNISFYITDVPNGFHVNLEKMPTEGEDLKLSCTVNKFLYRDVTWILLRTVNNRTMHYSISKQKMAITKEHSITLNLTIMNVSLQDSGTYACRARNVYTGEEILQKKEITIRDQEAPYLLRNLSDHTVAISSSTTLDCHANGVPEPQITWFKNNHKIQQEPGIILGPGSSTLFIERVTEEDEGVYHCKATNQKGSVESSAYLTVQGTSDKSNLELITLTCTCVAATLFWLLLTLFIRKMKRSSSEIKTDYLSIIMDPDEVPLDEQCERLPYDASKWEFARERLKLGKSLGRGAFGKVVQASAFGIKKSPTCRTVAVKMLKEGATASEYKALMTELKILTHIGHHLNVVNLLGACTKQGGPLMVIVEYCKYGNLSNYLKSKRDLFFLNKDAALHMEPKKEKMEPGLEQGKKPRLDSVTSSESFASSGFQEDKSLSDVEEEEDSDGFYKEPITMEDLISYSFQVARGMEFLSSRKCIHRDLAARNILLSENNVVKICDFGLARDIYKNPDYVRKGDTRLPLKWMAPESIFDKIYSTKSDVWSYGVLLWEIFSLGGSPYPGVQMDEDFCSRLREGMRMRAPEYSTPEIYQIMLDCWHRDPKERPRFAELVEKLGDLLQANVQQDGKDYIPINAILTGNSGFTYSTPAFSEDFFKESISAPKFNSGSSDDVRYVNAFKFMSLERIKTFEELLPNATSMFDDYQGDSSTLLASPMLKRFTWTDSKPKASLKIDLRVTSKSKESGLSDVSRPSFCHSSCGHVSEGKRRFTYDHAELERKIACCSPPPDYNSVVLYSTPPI

| Compound | Activity [1] [%] | Activity [2] [%] | Activity [3] [%] | Activity [4] [%] | Activity [5] [%] | Activity [6] [%] | Activity [7] [%] | Activity [8] [%] | Activity [9] [%] | Activity [10] [%] | Activity [11] [%] | Activity [12] [%] | Activity [13] [%] | Activity [14] [%] | Activity [15] [%] | Activity [16] [%] | Activity [17] [%] | Activity [18] [%] | Activity [19] [%] | Activity [20] [%] | also measured |
| --- | --- | --- | --- | --- | --- | --- | --- | --- | --- | --- | --- | --- | --- | --- | --- | --- | --- | --- | --- | --- | --- |
| N=C1NC(=O)/C(=C\c2ccc(-c3cccc([N+](=O)[O-])c3)o2)S1 | 94 | 82 | 97 | 82 | 99 | 92 | 78 | 96 | 92 | 65 | 100 | 91 | 76 | 103 | 92 | 99 | 109 | 84 | 92 | 102 | Activity [21]: 95% |
| C=CCOC(=O)c1cc(-c2ccc(/C=C3/NC(=S)NC3=O)o2)ccc1Cl | 117 | 99 | 96 | 91 | 104 | 74 | 121 | 98 | 100 | 58 | 104 | 99 | 106 | 90 | 110 | 95 | 105 | 92 | 103 | 103 | Activity [21]: 101% |
